Source: patent US20070173462A1, “Treatment of diseases associated with the use of antibiotics” (Optimer Pharmaceuticals, Inc., priority 2004, published 2007)
Converted amounts (≈) assume the structure as drawn. Where two headings read alike, the source gives them in different places.

Columns and labels:
Type in all cases: cell-based
[1] = test system: C. glycolicum; experiment: microbe, parasite or virus in culture; conditions: clinical isolates, n=9
[2] = test system: C. difficile; experiment: microbe, parasite or virus in culture; conditions: clinical isolates, n=23
[3] = test system: Veillonella sp.; experiment: microbe, parasite or virus in culture; conditions: clinical gastrointestinal isolates, n=10
[4] = test system: C. difficile, C. perfringens and C. sordellii; experiment: organism not typed
[5] = test system: C. difficile; experiment: MIC via agar dilution, 110 genetically distinct clinical isolates of C. difficile; conditions: for MIC: Clostridioides difficile

## CCc1c(Cl)c(O)c(Cl)c(O)c1C(=O)O[C@H]1[C@H](O)[C@H](OC)[C@H](OC/C2=C\C=C\C[C@H](O)/C(C)=C/[C@H](CC)C(O[C@@H]3OC(C)(C)[C@@H](OC(=O)C(C)C)[C@H](O)[C@@H]3O)/C(C)=C/C(C)=C/C[C@@H](C(C)O)OC2=O)O[C@@H]1C (stereo partly shown) [Compound I]
[1]; Terrisporobacter glycolicus
  MIC50: 0.062 µg/mL (≈ 0.0586 µM)
  MIC90: 1 µg/mL (≈ 0.945 µM)
[1]
  Range (MIC): 0.062 to 1 µg/mL
[2]; Clostridioides difficile
  MIC50: 0.12 µg/mL (≈ 0.113 µM)
  MIC90: 0.25 µg/mL (≈ 0.236 µM)
[2]
  Range (MIC): 0.062 to 2 µg/mL
[3]; Veillonella
  MIC50: 32 µg/mL (≈ 30.2 µM)
  MIC90: 128 µg/mL (≈ 121 µM)
[3]
  Range (MIC): 16 to 128 µg/mL
[4]
  MIC90: 0.062 to 0.25 µg/mL (≈ 0.0586 to 0.236 µM)
[5]; 110 clinical isolates, agar dilution
  Range (MIC): 0.015 to 0.25 µg/mL
[5]
  MIC: 0.125 µg/mL (≈ 0.118 µM)
[5]; isolate ORG ID 61 5930, read-out: MIC
  MIC: 0.03 µg/mL (≈ 0.0284 µM)
[5]; isolate ORG ID 63 6029, read-out: MIC
  MIC: 0.25 µg/mL (≈ 0.236 µM)
[5]; isolate ORG ID 65 5967, read-out: MIC
  MIC: 0.06 µg/mL (≈ 0.0567 µM)
[5]; isolate ORG ID 66 6366, read-out: MIC
  MIC: 0.015 µg/mL (≈ 0.0142 µM)
[5]; isolate ORG ID 68 6368, read-out: MIC
  MIC: 0.03 µg/mL (≈ 0.0284 µM)
[5]; isolate ORG ID 69 6370, read-out: MIC
  MIC: 0.25 µg/mL (≈ 0.236 µM)
[5]; isolate ORG ID 73 6382, read-out: MIC
  MIC: 0.25 µg/mL (≈ 0.236 µM)
[5]; isolate ORG ID 77 6390, read-out: MIC
  MIC: 0.06 µg/mL (≈ 0.0567 µM)
[5]; isolate ORG ID 78 6392, read-out: MIC
  MIC: 0.015 µg/mL (≈ 0.0142 µM)
[5]; isolate ORG ID 82 6329, read-out: MIC
  MIC: 0.06 µg/mL (≈ 0.0567 µM)
[5]; isolate ORG ID 83 6330, read-out: MIC
  MIC: 0.06 µg/mL (≈ 0.0567 µM)
[5]; isolate ORG ID 85 6332, read-out: MIC
  MIC: 0.06 µg/mL (≈ 0.0567 µM)
[5]; isolate ORG ID 86 6333, read-out: MIC
  MIC: 0.03 µg/mL (≈ 0.0284 µM)
[5]; isolate ORG ID 89 6336, read-out: MIC
  MIC: 0.25 µg/mL (≈ 0.236 µM)
[5]; isolate ORG ID 94 6343, read-out: MIC
  MIC: 0.015 µg/mL (≈ 0.0142 µM)
[5]; isolate ORG ID 96 6348, read-out: MIC
  MIC: 0.06 µg/mL (≈ 0.0567 µM)
[5]; isolate ORG ID 97 6349, read-out: MIC
  MIC: 0.25 µg/mL (≈ 0.236 µM)
[5]; isolate ORG ID 101 6354, read-out: MIC
  MIC: 0.015 µg/mL (≈ 0.0142 µM)
[5]; isolate ORG ID 102 6355, read-out: MIC
  MIC: 0.016 µg/mL (≈ 0.0151 µM)
[5]; isolate ORG ID 103 6068, read-out: MIC
  MIC: 0.06 µg/mL (≈ 0.0567 µM)
[5]; isolate ORG ID 104 6060, read-out: MIC
  MIC: 0.03 µg/mL (≈ 0.0284 µM)
[5]; isolate ORG ID 105 6071, read-out: MIC
  MIC: 0.03 µg/mL (≈ 0.0284 µM)
[5]; isolate ORG ID 106 6078, read-out: MIC
  MIC: 0.03 µg/mL (≈ 0.0284 µM)
[5]; isolate ORG ID 107 6079, read-out: MIC
  MIC: 0.06 µg/mL (≈ 0.0567 µM)
[5]; isolate ORG ID 109 6274, read-out: MIC
  MIC: 0.015 µg/mL (≈ 0.0142 µM)
[5]; isolate ORG ID 111 6279, read-out: MIC
  MIC: 0.03 µg/mL (≈ 0.0284 µM)
[5]; isolate ORG ID 112 6280, read-out: MIC
  MIC: 0.06 µg/mL (≈ 0.0567 µM)
[5]; isolate ORG ID 113 6304, read-out: MIC
  MIC: 0.06 µg/mL (≈ 0.0567 µM)
[5]; isolate ORG ID 114 386, read-out: MIC
  MIC: 0.06 µg/mL (≈ 0.0567 µM)
[5]; isolate ORG ID 115 5985, read-out: MIC
  MIC: 0.015 µg/mL (≈ 0.0142 µM)
[5]; isolate ORG ID 116 5702, read-out: MIC
  MIC: 0.06 µg/mL (≈ 0.0567 µM)
[5]; isolate ORG ID 117 6026, read-out: MIC
  MIC: 0.06 µg/mL (≈ 0.0567 µM)
[5]; isolate ORG ID 120 6057, read-out: MIC
  MIC: 0.03 µg/mL (≈ 0.0284 µM)
[5]; isolate ORG ID 121 6072, read-out: MIC
  MIC: 0.06 µg/mL (≈ 0.0567 µM)
[5]; isolate ORG ID 122 6111, read-out: MIC
  MIC: 0.25 µg/mL (≈ 0.236 µM)
[5]; isolate ORG ID AA2 4380, read-out: MIC
  MIC: 0.015 µg/mL (≈ 0.0142 µM)
[5]; isolate ORG ID AB2 1725, read-out: MIC
  MIC: 0.06 µg/mL (≈ 0.0567 µM)
[5]; isolate ORG ID AC1 1546, read-out: MIC
  MIC: 0.06 µg/mL (≈ 0.0567 µM)
[5]; isolate ORG ID AJ1 1557, read-out: MIC
  MIC: 0.06 µg/mL (≈ 0.0567 µM)
[5]; isolate ORG ID AL1 1753, read-out: MIC
  MIC: 0.06 µg/mL (≈ 0.0567 µM)
[5]; isolate ORG ID AV1 941, read-out: MIC
  MIC: 0.25 µg/mL (≈ 0.236 µM)
[5]; isolate ORG ID B1 832, read-out: MIC
  MIC: 0.06 µg/mL (≈ 0.0567 µM)
[5]; isolate ORG ID BH1 4506, read-out: MIC
  MIC: 0.06 µg/mL (≈ 0.0567 µM)
[5]; isolate ORG ID BM1 1453, read-out: MIC
  MIC: 0.06 µg/mL (≈ 0.0567 µM)
[5]; isolate ORG ID BR1 1321, read-out: MIC
  MIC: 0.06 µg/mL (≈ 0.0567 µM)
[5]; isolate ORG ID BT1 706, read-out: MIC
  MIC: 0.06 µg/mL (≈ 0.0567 µM)
[5]; isolate ORG ID CB1 1584, read-out: MIC
  MIC: 0.25 µg/mL (≈ 0.236 µM)
[5]; isolate ORG ID CL1 3851, read-out: MIC
  MIC: 0.25 µg/mL (≈ 0.236 µM)
[5]; isolate ORG ID CN1 667, read-out: MIC
  MIC: 0.25 µg/mL (≈ 0.236 µM)
[5]; isolate ORG ID CO1 4652, read-out: MIC
  MIC: 0.25 µg/mL (≈ 0.236 µM)
[5]; isolate ORG ID D1 1360, read-out: MIC
  MIC: 0.03 µg/mL (≈ 0.0284 µM)
[5]; isolate ORG ID E1 816, read-out: MIC
  MIC: 0.06 µg/mL (≈ 0.0567 µM)
[5]; isolate ORG ID J1 5971, read-out: MIC
  MIC: 0.06 µg/mL (≈ 0.0567 µM)
[5]; isolate ORG ID J7 4224, read-out: MIC
  MIC: 0.03 µg/mL (≈ 0.0284 µM)
[5]; isolate ORG ID J9 4478, read-out: MIC
  MIC: 0.06 µg/mL (≈ 0.0567 µM)
[5]; isolate ORG ID O1 1861, read-out: MIC
  MIC: 0.06 µg/mL (≈ 0.0567 µM)
[5]; isolate ORG ID R6 6015, read-out: MIC
  MIC: 0.015 µg/mL (≈ 0.0142 µM)
[5]; isolate ORG ID Y1 5639, read-out: MIC
  MIC: 0.06 µg/mL (≈ 0.0567 µM)
